Measurements published in BindingDB's records for doi:10.1021/acschembio.7b00369 (Baylor College of Medicine, 2017).
“And” between values parts separate entries of the source, which are not always exact repeats. Equal values may be shown once.

Key:
Test in all cases: Microfluidic Mobility-Shift Assay
Details in all cases: pH 7
[1] = biological target: T1, Isoform Beta of cGMP-dependent protein kinase 1 [1-351] (Human, UniProt Q13976)
T1 construct: 1-351
T1 sequence (Q13976 whole entry): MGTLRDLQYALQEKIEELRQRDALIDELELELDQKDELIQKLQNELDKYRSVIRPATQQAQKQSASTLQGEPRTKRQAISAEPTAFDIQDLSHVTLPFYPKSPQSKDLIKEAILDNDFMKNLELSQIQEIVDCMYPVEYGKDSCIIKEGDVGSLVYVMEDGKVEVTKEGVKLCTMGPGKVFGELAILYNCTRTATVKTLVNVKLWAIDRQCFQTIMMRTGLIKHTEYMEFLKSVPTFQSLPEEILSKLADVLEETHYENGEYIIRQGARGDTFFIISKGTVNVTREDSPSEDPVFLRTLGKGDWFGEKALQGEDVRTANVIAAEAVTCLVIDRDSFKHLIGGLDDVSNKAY

[2] = biological target: T2, cGMP-dependent protein kinase 2 (Homo sapiens, UniProt Q13237)
T2 sequence (Q13237 whole entry): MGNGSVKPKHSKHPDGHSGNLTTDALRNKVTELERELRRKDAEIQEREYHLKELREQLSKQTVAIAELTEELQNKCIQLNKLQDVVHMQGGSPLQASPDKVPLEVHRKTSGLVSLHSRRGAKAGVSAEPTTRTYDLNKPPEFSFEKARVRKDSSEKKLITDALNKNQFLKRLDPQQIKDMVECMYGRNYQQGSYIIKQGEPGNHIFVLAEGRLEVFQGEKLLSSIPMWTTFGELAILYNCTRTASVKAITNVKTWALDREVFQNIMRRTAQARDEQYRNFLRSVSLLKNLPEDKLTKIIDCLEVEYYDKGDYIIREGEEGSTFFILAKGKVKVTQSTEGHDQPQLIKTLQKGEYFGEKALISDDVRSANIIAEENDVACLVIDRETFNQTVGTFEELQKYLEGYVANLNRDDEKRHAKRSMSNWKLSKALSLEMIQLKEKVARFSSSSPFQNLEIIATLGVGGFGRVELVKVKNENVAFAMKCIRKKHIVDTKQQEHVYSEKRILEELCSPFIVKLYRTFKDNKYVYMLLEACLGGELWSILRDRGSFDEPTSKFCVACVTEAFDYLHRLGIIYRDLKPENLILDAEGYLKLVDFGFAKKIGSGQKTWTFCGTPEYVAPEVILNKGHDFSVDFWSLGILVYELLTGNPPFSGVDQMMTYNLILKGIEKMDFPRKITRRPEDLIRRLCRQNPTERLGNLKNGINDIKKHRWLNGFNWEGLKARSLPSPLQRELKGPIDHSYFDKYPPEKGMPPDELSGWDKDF

[3] = biological target: T3, Isoform Beta of cGMP-dependent protein kinase 1 [1-351,G306E] (Human, UniProt Q13976, G306E)
T3 construct: 1-351

[4] = biological target: T4, cGMP-dependent protein kinase 2 [41-418,G232E] (Human, UniProt Q13237, G232E)
T4 construct: 41-418

[5] = biological target: T5, cGMP-dependent protein kinase 2 [41-418,G356E] (Human, UniProt Q13237, G356E)
T5 construct: 41-418

[6] = biological target: T6, Isoform Beta of cGMP-dependent protein kinase 1 [5-676,G306E] (Human, UniProt Q13976, G306E)
T6 construct: 5-676

[7] = biological target: T7, Isoform Beta of cGMP-dependent protein kinase 1 [1-351,G182E] (Human, UniProt Q13976, G182E)
T7 construct: 1-351

[8] = biological target: T8, cGMP-dependent protein kinase 2 [41-418] (Human, UniProt Q13237)
T8 construct: 41-418
T8 sequence (Q13237 whole entry): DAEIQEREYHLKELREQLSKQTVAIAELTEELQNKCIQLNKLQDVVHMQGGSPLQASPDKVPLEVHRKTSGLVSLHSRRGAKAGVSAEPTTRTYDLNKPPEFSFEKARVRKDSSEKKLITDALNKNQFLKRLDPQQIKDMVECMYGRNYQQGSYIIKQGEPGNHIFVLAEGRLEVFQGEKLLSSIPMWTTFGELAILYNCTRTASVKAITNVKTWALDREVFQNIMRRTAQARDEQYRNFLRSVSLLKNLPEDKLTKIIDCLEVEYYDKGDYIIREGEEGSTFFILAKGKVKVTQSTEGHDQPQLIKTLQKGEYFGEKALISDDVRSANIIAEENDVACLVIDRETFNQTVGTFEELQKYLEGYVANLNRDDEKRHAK

T6 sequence (Q13976 as listed by the source G306E): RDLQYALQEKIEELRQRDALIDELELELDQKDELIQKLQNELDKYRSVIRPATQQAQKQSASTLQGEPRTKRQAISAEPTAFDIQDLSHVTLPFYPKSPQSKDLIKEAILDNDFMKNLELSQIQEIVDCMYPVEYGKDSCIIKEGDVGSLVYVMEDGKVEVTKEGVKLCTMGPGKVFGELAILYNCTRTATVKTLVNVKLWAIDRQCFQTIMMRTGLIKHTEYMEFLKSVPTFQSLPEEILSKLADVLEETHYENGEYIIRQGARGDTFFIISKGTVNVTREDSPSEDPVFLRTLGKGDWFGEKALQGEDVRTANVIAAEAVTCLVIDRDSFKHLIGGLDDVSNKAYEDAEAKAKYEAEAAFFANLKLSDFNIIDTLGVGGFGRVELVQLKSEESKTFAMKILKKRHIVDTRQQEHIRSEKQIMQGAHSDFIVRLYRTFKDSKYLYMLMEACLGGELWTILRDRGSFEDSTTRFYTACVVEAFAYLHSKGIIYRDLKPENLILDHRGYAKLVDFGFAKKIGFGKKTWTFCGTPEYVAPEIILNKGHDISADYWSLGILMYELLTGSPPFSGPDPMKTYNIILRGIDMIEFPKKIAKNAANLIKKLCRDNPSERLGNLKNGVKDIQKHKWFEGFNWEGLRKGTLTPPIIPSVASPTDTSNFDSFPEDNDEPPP
T3 sequence (Q13976 as listed by the source G306E): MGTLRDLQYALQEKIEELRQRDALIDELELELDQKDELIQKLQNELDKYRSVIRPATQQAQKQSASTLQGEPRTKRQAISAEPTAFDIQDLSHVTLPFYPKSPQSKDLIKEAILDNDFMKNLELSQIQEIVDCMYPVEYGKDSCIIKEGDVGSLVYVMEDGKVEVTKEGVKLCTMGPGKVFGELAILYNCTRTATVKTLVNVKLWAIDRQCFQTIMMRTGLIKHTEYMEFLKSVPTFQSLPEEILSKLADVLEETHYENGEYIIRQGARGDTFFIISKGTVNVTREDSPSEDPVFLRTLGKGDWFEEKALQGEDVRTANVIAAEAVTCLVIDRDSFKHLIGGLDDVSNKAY
T7 sequence (Q13976 as listed by the source G182E): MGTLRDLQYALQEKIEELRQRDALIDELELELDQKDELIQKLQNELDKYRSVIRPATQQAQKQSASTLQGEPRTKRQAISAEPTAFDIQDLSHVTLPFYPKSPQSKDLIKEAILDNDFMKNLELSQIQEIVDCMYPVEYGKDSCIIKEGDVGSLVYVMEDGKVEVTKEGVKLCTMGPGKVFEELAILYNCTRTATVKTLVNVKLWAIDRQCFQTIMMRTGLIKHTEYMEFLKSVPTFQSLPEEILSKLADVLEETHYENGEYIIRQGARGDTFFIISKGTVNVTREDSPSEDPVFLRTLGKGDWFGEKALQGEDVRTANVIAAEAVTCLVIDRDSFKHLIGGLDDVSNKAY
T4 sequence (Q13237 41-418 G232E): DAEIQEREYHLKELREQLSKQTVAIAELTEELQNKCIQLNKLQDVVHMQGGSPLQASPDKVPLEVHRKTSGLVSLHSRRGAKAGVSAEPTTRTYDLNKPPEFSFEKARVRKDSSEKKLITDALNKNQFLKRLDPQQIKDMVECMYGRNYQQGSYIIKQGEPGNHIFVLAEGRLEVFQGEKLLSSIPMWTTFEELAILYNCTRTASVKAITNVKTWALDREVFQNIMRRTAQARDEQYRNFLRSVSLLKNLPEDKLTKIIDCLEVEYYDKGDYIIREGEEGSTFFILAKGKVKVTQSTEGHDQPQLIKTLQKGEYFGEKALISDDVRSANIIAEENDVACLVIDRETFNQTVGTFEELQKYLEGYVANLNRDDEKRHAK
T5 sequence (Q13237 41-418 G356E): as the sequence (Q13237 41-418 G232E) above, with E192G, G316E counted along it

Row | EC50 [1] | EC50 [3] | EC50 [4] | EC50 [6] | EC50 [7] | Structure (SMILES) | EC50 [2] [nM] | EC50 [5] [nM] | EC50 [8] [nM]
1 | 163 nM and 212 nM | 4.2 nM and 7.7 nM | 184 nM and 116 nM | 370 nM and 249 nM | 328 nM and 206 nM | Nc1nc(=O)c2nc(Sc3ccc(Cl)cc3)n([C@@H]3O[C@@H]4COP(=O)(O)O[C@H]4[C@H]3O)c2[nH]1 [8-pCP-cGMP] | – | – | –
2 | 3.8 nM | < 2 nM | 1960 nM | 18 nM | 5.8 nM | O=c1c2ncn([C@@H]3O[C@@H]4COP(=O)(O)O[C@H]4[C@H]3O)c2[nH]c2nc(-c3ccccc3)cn12 [PET-cGMP] | 225 | 5.3 | 193

Row | Structure (SMILES) | EC50 [1] | EC50 [3] | EC50 [4] | EC50 [6] | EC50 [7] | EC50 [2] [nM] | EC50 [5] [nM] | EC50 [8] [nM]
3 | Nc1nc(O)c2nc(Br)n([C@@H]3O[C@@H]4COP(=O)(O)O[C@H]4[C@H]3O)c2n1 [2-amino-8-bromo-9-[(2R,4aR,6R,7R,7aS)-2,7-dihydroxy-2-oxotetrahydro-2H,4H-2lambda~5~-furo[3,2-d][1,3,2]dioxaphosphinin-6-yl]-1,9-dihydro-6H-purin-6-one] | 222 nM | < 2 nM | 11 nM | 206 nM | 765 nM | 58 | 30 | 20
